# From patent US20250041624A1, “METHOD FOR ENHANCING ACTIVITY OF PHOTOSENSITIZER BY MAGNETIC FIELD” (PEKING UNIVERSITY, priority 2021, published 2025)
# “And” between values parts separate entries of the source, which are not always exact repeats. Identical values can stand only once. Like-named read-outs stand apart in the source and are kept apart here.
# Legend:
# Type in all cases: cell-based
# [1] = test system: HeLa cells; test: CCK-8 cell viability of HeLa cells under light and magnetic field; conditions: for CV(%) (cell viability): final concentration of photosensitizer 30 mol/L (so in the source), light 10 min; for mfe(CV)(%) =(CV0−CVB)/CV0×100%: photosensitizer 30 mol/L (so in the source); for IC50: white light 400-700 nm 5 mW·cm−2, 10 min, read-out: RB Half inhibitory concentration
# Protocol: (1) Appropriate amounts of HeLa cells are added to DMEM medium (Corning, USA, high glycoform, with glucose concentration […] 4.5 g/L), and then appropriate amounts of 10 wt % fetal bovine serum (FBS), 1 wt % penicillin and streptomycin are added. Cells are cultured at 37° C. in humidified air with 5% (volume fraction) CO2 for 2 days.
# The above Hela cells (2×10^3/well) are seeded in 96-well plates for 24 h without light. 100 μL medium and 100 μL aqueous solution of RB with concentrations of 80, 40, 20, 10, 5 μmol/L or 100 μL 0.01 mol/L PBS buffer (phosphate buffered saline) are added respectively, and treated for 24 h, thereafter the cells are washed 3 times with PBS buffer.
# DMEM (comprising FBS) medium is added to the 96-well plates for 24 hours in the absence of light. An additional 10 μL of Cell Counting Kit-8 (CCK-8 kit) (Beyotime Biotechnology Co. Ltd.) and 90 μL of DMEM are added to each well, and the light and magnetic field strength are controlled for a subsequent incubation of 30 minutes. The absorbance at 450 nm is read using a microplate reader. Cell Viability (CV) of Hela cells is calculated using the following equation: […]
# Where As is the absorbance of HeLa cells comprising photosensitizer (PS), Ac is the absorbance of Hela cells without PS and Ab is the absorbance of those without PS and HeLa cells.
# The change rate of half inhibitory concentration, mfeP (Cell Viability (%)) is obtained as follows: mfeP=(IC50,0−IC50,B)/IC50,B×100%, where IC50,0 is half inhibitory concentration at magnetic field strength of 0 mT and IC50,B is half inhibitory concentration at magnetic field strength of B.
# Under white light with lighting conditions of 400-700 nm, the power of 5 mW·cm^−2, test is carried out in a magnetic field with strengths of 0-800 mT, and the irradiation and the magnetic field perform for 10 min. The results of the test calculations for mfeP (Cell Viability (%)) at different concentrations of RB and each magnetic field strength are shown in FIG. 8. The RB half inhibitory concentration μmol/L at magnetic field strength of B calculated by logistic regression model fitting according to FIG. 8 are shown in Table 2 below.
# In above experiment, with final concentration of photosensitizer of 30 mol/L, CV (%) and mfe (CV) (%) measured and calculated at each magnetic field strength are specifically shown in Table 3, where mfe(CV)=(CV0−CVB)/CV0×100%.
# [2] = test system: HeLa cells; test: 14-day culture and crystal violet staining of HeLa cells after light and magnetic field
# Protocol: (2) HeLa cells (1×10^3/well) are seeded in 6-well plates, 30 μL aqueous solution of RB (final concentration of 30 μM) or equal volume 0.01M PBS buffer is added as control, and, after 24 h incubation in DMEM (comprising FBS) medium, cells are washed 3 times with PBS buffer.
# The cells are treated in the dark or with 10 min light (561 nm […], 5 mW·cm^−2) under magnetic field conditions at 0 mT, 250 mT, 800 mT respectively. Culture is continued in the dark, and media is changed every other day. After 14 days, it is rinsed with PBS buffer and methanol, and cells are stained with added 0.1 wt % aqueous solution of crystal violet, and the number of cells in the plate is shown in FIG. 9; and the relative cell activity of HeLa cells at a concentration of 30 μmol/L RB under the magnetic field conditions of 0 mT, 250 mT, 800 mT is shown in FIG. 10.
# [3] = test system: HeLa cells; test: Annexin V-FITC/PI apoptosis flow cytometry of HeLa cells; conditions: RB 30 μmol/L; for percentage of apoptotic cells: light 561 nm 5 mW·cm−2 10 min
# Protocol: (2) HeLa cells (2×10^4/well) are seeded in 6-well plates and cultured for 24 hours, added with RB solution (final concentration 30 μmol/L) or PBS buffer (final concentration 0.01 mol/L), and after treating 24 hours, cells are washed 3 times with PBS buffer.
# The cells are placed under a magnetic field at 0, 250 or 800 mT, simultaneously with light (561 nm, 5 mW·cm^−2) or in the dark, and treated 10 minutes. After 24 hours incubation in the dark, cells are stained with Annexin V-FITC/PI Apoptosis Kit (available from Biyotime Biotechnology Co. Ltd), are detected by flow cytometry (BD FACSVerse, Becton Dickinson) and are statistically analysized three times every group, and results are shown in FIG. 13, in which Quadrant Q4 is for the number of healthy cells, Q1 is for the number of early apoptotic cells, Q2 is for the number of late apoptotic cells and Q3 is for the number of necrotic cells.
structure (smiles),measurement,setting,value
"O=C1OC2(c3cc(I)c(O)c(I)c3Oc3c2cc(I)c(O)c3I)c2c(Cl)c(Cl)c(Cl)c(Cl)c21 [RB, Rose Bengal]","mfeP (Cell Viability(%), change rate of half inhibitory concentration)",[1]; MF 14 mT vs 0 mT,−21% and −21.5%
same,"mfeP (Cell Viability(%), change rate of half inhibitory concentration)",[1]; MF 40 mT vs 0 mT,8.1%
same,"mfeP (Cell Viability(%), change rate of half inhibitory concentration)",[1]; MF 90 mT vs 0 mT,13.3%
same,"mfeP (Cell Viability(%), change rate of half inhibitory concentration)",[1]; MF 150 mT vs 0 mT,14.8%
same,"mfeP (Cell Viability(%), change rate of half inhibitory concentration)",[1]; MF 250 mT vs 0 mT,22.4%
same,"mfeP (Cell Viability(%), change rate of half inhibitory concentration)",[1]; MF 575 mT vs 0 mT,22.1%
same,"mfeP (Cell Viability(%), change rate of half inhibitory concentration)",[1]; MF 700 mT vs 0 mT,−11.1%
same,"mfeP (Cell Viability(%), change rate of half inhibitory concentration)",[1]; MF 800 mT vs 0 mT,−58%
same,CV(%) (cell viability),[1]; MF 0 mT,71.1 ± 0.5%
same,CV(%) (cell viability),[1]; MF 14 mT,89.8 ± 4.2%
same,CV(%) (cell viability),[1]; MF 150 mT,72.5 ± 3.2%
same,CV(%) (cell viability),[1]; MF 250 mT,59.9 ± 2.6%
same,CV(%) (cell viability),[1]; MF 400 mT,42.3 ± 6.7%
same,CV(%) (cell viability),[1]; MF 575 mT,74.1 ± 0.6%
same,CV(%) (cell viability),[1]; MF 700 mT,78.3 ± 3.2%
same,CV(%) (cell viability),[1]; MF 800 mT,83.0 ± 0.5%
same,mfe(CV)(%) =(CV0−CVB)/CV0×100%,[1]; MF 0 mT,0%
same,mfe(CV)(%) =(CV0−CVB)/CV0×100%,[1]; MF 14 mT,−26.3%
same,mfe(CV)(%) =(CV0−CVB)/CV0×100%,[1]; MF 150 mT,−1.97%
same,mfe(CV)(%) =(CV0−CVB)/CV0×100%,[1]; MF 250 mT,15.8%
same,mfe(CV)(%) =(CV0−CVB)/CV0×100%,[1]; MF 400 mT,40.5%
same,mfe(CV)(%) =(CV0−CVB)/CV0×100%,[1]; MF 575 mT,−4.2%
same,mfe(CV)(%) =(CV0−CVB)/CV0×100%,[1]; MF 700 mT,−10.13%
same,mfe(CV)(%) =(CV0−CVB)/CV0×100%,[1]; MF 800 mT,−16.7%
same,IC50,[1]; MF 0 mT,34.2 ± 1.7 µM
same,IC50,[1]; MF 14 mT,41.6 ± 1.4 µM
same,IC50,[1]; MF 40 mT,31.5 ± 1 µM
same,IC50,[1]; MF 90 mT,29.7 ± 0.7 µM
same,IC50,[1]; MF 150 mT,29.2 ± 0.6 µM
same,IC50,[1]; MF 250 mT,26.6 ± 0.3 µM
same,IC50,[1]; MF 400 mT,26.1 ± 0.8 µM
same,IC50,[1]; MF 575 mT,26.7 ± 1.9 µM
same,IC50,[1]; MF 700 mT,38 ± 1.1 µM
same,IC50,[1]; MF 800 mT,54.1 ± 0.8 µM
same,cytotoxicity against HeLa cells in the absence of light,"[2]; RB 30 μM, dark, with or without magnetic field, FIG. 9",no cytotoxicity
same,cell numbers relative to PBS-only treatment,"[2]; RB 30 μM, light alone (0 mT), 14 days, FIG. 9",significantly lower
same,cell numbers,"[2]; RB 30 μM, light, 250 mT, 14 days, FIG. 9",the least
same,cell numbers,"[2]; RB 30 μM, light, 800 mT, 14 days, FIG. 9",more under 800 mT conditions compared to 0 mT and 250 mT conditions
same,reduction of cell number relative to 0 mT,"[2]; RB 30 μmol/L, light, 250 mT, FIG. 10",17%
same,increase of cell number relative to 0 mT,"[2]; RB 30 μmol/L, light, 800 mT, FIG. 10",32%
same,percentage of apoptotic cells,[3]; 250 mT,75.9%
same,percentage of apoptotic cells,[3]; 800 mT,32.9%
same,percentage of apoptotic cells,[3]; no magnetic field,63.8%
same,increase of percentage of apoptotic cells vs no magnetic field,"[3]; light, 250 mT",19%
